Where two headings read alike, the source gives them in different places.
Key:
[1] = system: neonatal human keratinocytes; experiment: Colony forming efficiency of neonatal human keratinocytes; format: cell-based; conditions: GM medium with 10% fetal bovine serum
Experimental: Colony forming efficiency of neonatal human keratinocytes treated with Di-rhamnolipid W3CTS.
The stimulation was most significant at 100 μg/ml and 50 μg/ml the colony forming ability was increased by 34% at 50 μg/ml of Di-rhamnolipid W3CTS. The results are consistent with the effects of Di-rhamnolipid W3CTS on the neonatal human keratinocyte viability in GM with 10% fetal bovine serum.

[2] = system: Guinea pig lung LTC4 synthetase; experiment: Leukotriene C4 synthetase inhibition (EIA); format: biochemical; conditions: highest concentration 1,000 μM/ml; DMSO 0.5%
Experimental: Leukotriene C4 (LTC4) synthetase is involved in the formation of LTC4 from LTA4. Taken together with other assays for enzymes involved in the lipoxygenase pathway (e.g. 5-lipoxygenase, LTA4 hydrolase), a locus of action can be established for agents which inhibit the formation of leukotrienes. Guinea pig lung LTC4 synthetase was used. Test compound and/or vehicle was pre-incubated with 180 μg/ml enzyme in phosphate buffer pH 7.8 for 15 minutes at 37° C. The reaction is initiated by the addition of 2.5 μg/ml LTA4 methyl ester for another 30 minute incubation period and terminated by further addition of ice-cold methanol. Determination of the amount of LTC4 formed is read spectrophotometrically by enzyme immunoassay kit (EIA). W3CTS was screened at 1,000; 100; 10; and 1 μM/ml. Solvent was DMSO 0.5%. Sulfazine was used as a reference. Inhibition was 81% at the highest concentration of 1,000 μM/ml.

[3] = system: T-lymphocyte cells isolated from thymus of balb/c mice; experiment: Mouse T-cell proliferation (thymidine incorporation); format: cell-based
Experimental: T-lymphocyte cells isolated from thymus of balb/c mice weighing 17±1 g were used. Test compound and/or vehicle was incubated with the cells (4×10^6/ml) in the presence of 3 μg/ml concanavalin A (Con A) overnight. Thymidine incorporation was assessed by liquid scintillation counting. B-lymphocyte cells isolated from the spleen of balb/c mice weighing 17±1 g were used. Test compound and/or vehicle was incubated with the cells (1.5×10^6/ml) in the presence of 10 μg/ml lipopolysaccharide (LPS) in AIM-V medium pH 7.4 at 37° C., during 24 hours. [^3H]Thymidine (120 nM) was then added for an additional overnight incubation period. Thymidine incorporation was assessed by liquid scintillation counting. […] T-cells isolated from mouse thymus were inhibited at the concentration of 10 μM by 24% and in the presence of concanavalin T-cells proliferation was inhibited 43%.

[4] = system: Swiss-Webster female mice; experiment: Acute cutaneous irritation, mouse ear assay (Part A); format: in vivo; conditions: single topical application, up to 24 hours
Experimental: (§1) Effects of Di-rhamnolipid W3CTS on TPA/pyr induced acute inflammation in the ears of Swiss-Webster female mice.
(§2) The aim of this study was two-fold. In Part A the potential of a single topical application of W3CTS to cause acute cutaneous irritation (up to 24 hours) was measured in a mouse ear assay system. […] The aim of Part B was to determine the effects of a single topical administration of W3CTS on acute dermal inflammation induced by TPA/pyr, Part B was designed to differentiate the ability of Di-rhamnolipid W3CTS at concentration 1 mg/ml to prevent, inhibit or reverse induced ear inflammation.

[5] = system: Swiss-Webster female mice; experiment: TPA/pyr induced acute dermal ear inflammation (Part B); format: in vivo, mouse
Experimental: as §1, §2
The time of maximal reduction of inflammation was dependent on the time of treatment, with respect to induction. The effect of Di-rhamnolipid W3CTS was moderate (up to 32% decrease in inflammation) but sustained. […] Post treatment reversed established inflammation by 32% at 11 hours. […] It may be possible to increase the anti-inflammatory effect of Di-rhamnolipid W3CTS by use of a different dose formulation, or by repeated treatments.

[6] = system: nude guinea pigs; experiment: DNCB induced delayed type hypersensitivity in nude guinea pigs; format: in vivo, guinea pig
Experimental: The nude guinea pig is used as a test animal because of different animal skins; nude guinea pig skin is claimed to be the one closest resembling human skin.
In DNCB sensitized guinea pigs delayed type hypersensitivity reactions were induced with patches soaked with 0.25% (w/v) DNCB in ethanol/propylene glycol kept on the animals back for 24 hours. The test sites were treated twice daily during 7 days with: Dovonex ointment ([…]), 1% Di-rhamnolipid W3CTS in Vaseline, vehicle and untreated area. […] Dovonex has been improved by time.

[7] = Ames test
[8] = system: patients; experiment: Treatment of patients with seborrheic dermatitis, lichen planus and dermatitis circumscripta unilocularis; format: in vivo, human
Experimental: Twelve psoriatic hospital bed patients, and one patient with seborrheic dermatitis and psoriasis, one patient with lichen planus and one with dermatitis cicumscripta unilocullaris as an out clinic patient were recruited as study volunteers.
Patients with seborhheic dermatitis, lichen planus and dermatitis unilocularis circumscripta eczematoides were cured.
This condition, confirmed with clinical appearance and histopahological findings, was treated with different standard approaches, (mostly) steroids, but condition worsened with tendency to spread further to the large wound covered by thick crust. Following the treatment with 1% Di-rhamnolipid W3CTS, eucerin ointment was introduced with overnight inclusions during four weeks. […] Patient died by natural course 15 years after treatment had been finished.

[9] = system: chronic decubitus ulcer in humans; experiment: Treatment of chronic decubitus ulcer; format: in vivo, human; conditions: topical 0.1% eucerin ointment; single case
From the text: Treatment of Chronic Decubitus Ulcer with Di-Rhamnolipid W3CTS

In the case of CCCCCCCC(CC(=O)O)OC(=O)CC(CCCCCCC)OC1OC(C)C(O)C(O)C1OC1OC(C)C(O)C(O)C1O (stereo not drawn) [Di-rhamnolipid W3CTS], the “colony forming ability increase” value ([1]; 50 μg/ml) is reported as 34%, the “growth of keratinocyte colonies” value ([1]; 100, 50, 10 and 1 μg/ml) is reported as “stimulated the growth of keratinocyte colonies” and the “Inhibition of LTC4 synthetase” value [2] is reported as 81%. The inhibition at 10 µM ([3]; in the presence of concanavalin, read-out: inhibition of T-cells proliferation) was 43%, the inhibition at 10 µM ([3]; without concanavalin, read-out: inhibition of T-cells) was 24% and the “acute cutaneous irritation (ear erythema)” value [4] was “did not cause acute cutaneous irritation”. For the same compound, the “decrease in inflammation (overall)” value ([5]; 1 mg/ml topical, maximal effect) was “up to 32%”, the topical anti-inflammatory efficacy ([5]; 1 mg/ml, 1.0% w/v, single topical administration, 24 hours time-course) was “effective as a topical therapeutic anti-inflammatory agent” and the “inhibition of inflammation, concurrent treatment” value ([5]; at 6 hours) was “about 32%”. For the same compound, the “reversal of established inflammation, post treatment” value ([5]; at 11 hours, given 2 hours after induction) was 32%, the “protective effect, pretreatment” value ([5]; given one hour prior to induced inflammation) was “short duration as a protective agent” and the “anti-inflammatory effect in the model” value ([6]; 1% in Vaseline, preliminary data) was “very strong anti-inflammatory effect”. The “state of test areas by day 7” value ([6]; treated twice daily during 7 days, W3CTS 1% in Vaseline) was “healed”, the Ames test [7] was “negative” and the “outcome in seborhheic dermatitis, lichen planus and dermatitis unilocularis circumscripta eczematoides” value ([8]; 1.0% eucerin ointment) was “cured”. The “skin over the wound” value ([8]; after one year) was “looking normal”, the “wound healing in dermatitis circumscripta unilocularis” value ([8]; person, 1% eucerin ointment, overnight inclusions during four weeks) was “The wound started to heal” and the “healing of chronic decubitus ulcer” value [9] was “profound beneficial effect on the healing”.

— patent US20110123623A1, “RHAMNOLIPID MECHANISM” (priority 2009, published 2011)
